According to patent US10945992B1, “Dosage forms of rofecoxib and related methods” (Tremeau Pharmaceuticals, Inc., priority 2019, dated 2021):
Entries after “also recorded” stand apart in the source; their conditions may differ. Where two headings read alike, the source gives them in different places.

Tests used:
[1] = TRM-201-PK-101 single-dose pharmacokinetic study, 25 mg, fasted healthy subjects; format: in vivo, human; settings: for Cmax / AUC(0-inf) / AUC: human, plasma, oral
Procedure: A Single-Dose, Open-Label, Phase 1, Adaptive Pharmacokinetic Study of TRM-201 (Rofecoxib) 25 mg Administered to Healthy Subjects in a Fasting State, with Comparison to Historical Pharmacokinetic Parameters of Previously Marketed Rofecoxib and a Food-Effect Substudy (“TRM-201-PK-101” or “101 PK Study”)
This is a single-center, open-label, adaptive PK study of TRM-201 consisting of a MAIN study with a PILOT portion conducted under a fasted condition, and a two-period crossover, FOOD-EFFECT sub study under both fasted and fed conditions. The PILOT portion of the study (21 subjects) will include a single dose of TRM-201 in a single group to assess the PK of TRM-201 in healthy volunteers under fasted conditions. Following completion of the PILOT portion and the decision to move forward, an additional 16 subjects will be enrolled in the MAIN study and an additional 16 subjects will be enrolled in the FOOD-EFFECT sub study. The MAIN study will include a single dose of TRM-201 to assess the PK of TRM-201 in healthy volunteers under fasted conditions. The FOOD-EFFECT sub study is a single-dose, two-period crossover study. A single dose of TRM-201 will be given on Day 1 of each dosing period to assess the PK of TRM-201 in healthy volunteers under both fasted and fed conditions. Subjects will be randomized 1:1 into the two sequences fasted followed by fed, and fed followed by fasted.
After Check-In, subjects will fast overnight for at least 10 hours before study drug administration. While fasting, subjects will have nothing to eat and only water to drink. Water will be permitted as desired, except for the period between 1 hour before and 1 hour after study drug dosing (excepting as permitted for dosing). After the 2-hour PK blood sample, subjects will be allowed one 250-mL cup of clear apple juice. After the 4-hour PK blood sample, subjects will be served a light lunch. Following the light lunch, subjects should receive standardized meals according to the clinic's standard procedures that are scheduled at consistent times and at least 15 minutes before or 15 minutes after PK sampling time points. Blood will be withdrawn for PK analysis at predefined time points as defined in Table 8. The last time point will be 120 hours after dosing with study drug. After the 120-hour PK sample, the EOS procedures will be completed, and subjects will be discharged from the clinic.
This is an open-label PK study. Each subject is scheduled to receive a single 25-mg dose of TRM-201 in the PILOT portion and the MAIN study, and a single 25-mg dose of TRM-201 twice in the FOOD-EFFECT sub study. TRM-201 manufactured and formulated as Batch 5 (B18090) and Batch 6 (B18091), above, will be used in the study.
The time points and windows for PK blood sampling for the PILOT portion, Main study and FOOD-EFFECT substudy are presented in Table 14 below. For each sample, approximately 3 mL of blood will be drawn. The samples may be obtained by a straight stick or via an in-dwelling intravenous (IV) catheter in a forearm vein. Additional details for the collection, processing, storage, and shipping of PK samples will be provided in the study manual.
Pharmacokinetic samples will be analyzed using a validated assay for rofecoxib in human plasma. Assay results and validation details will be provided in a separate bioanalytical report.
The following PK parameters for rofecoxib will be calculated as primary endpoints using standard noncompartmental methods for both the PILOT portion and MAIN study, and the FOOD-EFFECT sub study: AUC0-∞ and Cmax. Secondary endpoints include Tmax, and t1/2. Additional PK parameters (e.g., CL/F, and Vd/F) will also be calculated using standard noncompartmental methods.
The PK parameters of rofecoxib will be analyzed based on the actual sampling times. All parameters will be calculated using the Phoenix® WinNonlin® version 6.4 or higher (Certara USA Inc., Princeton, N.J.) or SAS® version 9.3 or higher (SAS Institute Inc., Cary, N.C.). […]

[2] = target: cyclooxygenase-1 (COX-1) isoenzyme (Homo sapiens, UniProt P23219); settings: at therapeutic concentrations; listed as rofecoxib; cited from earlier work
cyclooxygenase-1 (COX-1) isoenzyme, sequence (P23219 24-599): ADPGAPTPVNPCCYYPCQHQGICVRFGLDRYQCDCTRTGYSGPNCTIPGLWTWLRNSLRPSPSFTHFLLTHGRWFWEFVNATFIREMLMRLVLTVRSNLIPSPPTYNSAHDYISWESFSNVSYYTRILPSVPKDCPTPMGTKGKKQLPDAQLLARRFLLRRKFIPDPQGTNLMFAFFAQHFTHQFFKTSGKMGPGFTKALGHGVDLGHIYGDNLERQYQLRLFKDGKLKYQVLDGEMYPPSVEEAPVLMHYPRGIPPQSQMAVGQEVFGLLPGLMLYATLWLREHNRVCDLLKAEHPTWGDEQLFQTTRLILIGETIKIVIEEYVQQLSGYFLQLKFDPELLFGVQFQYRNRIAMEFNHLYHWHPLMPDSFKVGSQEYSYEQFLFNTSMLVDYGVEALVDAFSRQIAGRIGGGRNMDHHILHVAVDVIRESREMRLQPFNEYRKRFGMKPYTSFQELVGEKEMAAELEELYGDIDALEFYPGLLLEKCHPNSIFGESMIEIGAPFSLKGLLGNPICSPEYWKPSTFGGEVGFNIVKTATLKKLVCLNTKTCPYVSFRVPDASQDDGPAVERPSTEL

[3] = cited from earlier work
COX-2 = COX-2 (Homo sapiens, UniProt P35354); settings: at therapeutic concentrations; cited from earlier work
COX-2, sequence (P35354 18-604): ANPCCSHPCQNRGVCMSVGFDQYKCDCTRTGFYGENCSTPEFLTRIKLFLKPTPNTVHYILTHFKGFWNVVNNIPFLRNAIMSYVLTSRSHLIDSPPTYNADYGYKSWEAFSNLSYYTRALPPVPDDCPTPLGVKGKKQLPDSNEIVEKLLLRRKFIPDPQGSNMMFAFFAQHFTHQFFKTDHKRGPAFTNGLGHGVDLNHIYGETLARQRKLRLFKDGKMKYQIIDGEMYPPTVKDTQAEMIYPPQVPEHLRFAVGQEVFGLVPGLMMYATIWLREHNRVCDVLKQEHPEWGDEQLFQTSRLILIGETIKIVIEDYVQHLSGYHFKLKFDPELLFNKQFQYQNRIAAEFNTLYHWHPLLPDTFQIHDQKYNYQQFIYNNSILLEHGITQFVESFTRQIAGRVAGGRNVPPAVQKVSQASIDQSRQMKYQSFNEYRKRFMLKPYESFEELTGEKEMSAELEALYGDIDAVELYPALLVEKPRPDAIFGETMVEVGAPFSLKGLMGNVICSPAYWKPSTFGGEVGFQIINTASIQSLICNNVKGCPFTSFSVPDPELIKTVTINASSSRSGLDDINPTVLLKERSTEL

[4] = 25 mg, versus Schwartz data, FIG. 28

## CS(=O)(=O)c1ccc(C2=C(c3ccccc3)C(=O)OC2)cc1 [TRM-201, 4-[4-(methylsulfonyl)phenyl]-3-phenyl-2(5H)-furanone]
[1]; [4]
  AUC0-∞ compared to historical data: larger
  Cmax compared to historical data: higher
[1]; 17.5 mg, 17.5 mg formulation, estimated from 101 data, read-out: estimated Cmax
  Cmax: ~238 ng/mL
[1]; 17.5 mg, extrapolated from 25 mg assuming dose linearity, read-out: extrapolated AUC0-∞
  AUC(0-inf): 3250 ng·h/mL
[1]; 17.5 mg, extrapolated from 25 mg assuming dose linearity, read-out: extrapolated Cmax
  Cmax: 223 ng/mL
[1]; 20 mg, 20 mg formulation, estimated from 101 data, read-out: estimated Cmax
  Cmax: ~266 ng/mL
[1]; 20 mg, extrapolated from 25 mg assuming dose linearity, read-out: extrapolated AUC0-∞
  AUC(0-inf): 3710 ng·h/mL
[1]; 20 mg, extrapolated from 25 mg assuming dose linearity, read-out: extrapolated Cmax
  Cmax: 254 ng/mL
[1]; 25 mg, 25 mg formulation in TRM-201-PK-101, as stated in Example 6, read-out: Geometric mean Cmax
  Cmax: 320 ng/mL
[1]; 25 mg, fasted, FIG. 25, read-out: geometric mean AUC0-∞
  AUC(0-inf): 4640 ng·h/mL
[1]; 25 mg, fasted, FIG. 25, read-out: geometric mean Cmax
  Cmax: 318 ng/mL
[1]; 17.5 mg formulation, estimated from 101 data, read-out: estimated AUC
  AUC: ~3280 ng·h/mL
[1]; 20 mg formulation, estimated from 101 data, read-out: estimated AUC
  AUC: ~3740 ng·h/mL
[1]; 25 mg formulation in TRM-201-PK-101, as stated in Example 6, read-out: Geometric mean AUC
  AUC: 4680 ng·h/mL
[2]
  inhibition of COX-1: does not inhibit; also recorded: not cyclooxygenase 1 (COX-1)
[3]; FDA 2005
  incidence of gastrointestinal (GI) ulcers visualized at endoscopy compared to certain non-selective NSAIDs: reduction
[3]; following chronic use, FDA 2005
  risk of serious GI bleeding compared to a non-selective NSAID (naproxen): reduce the risk
[3]; long-term controlled clinical trial / FDA 2005
  risk of serious adverse cardiovascular events compared to placebo: increased risk
COX-2
  inhibition of COX-2: inhibits COX-2
